Here are results for 33 compounds from patent US9676760B2, “Fused heterocyclic compounds as ion channel modulators” (Gilead Sciences, Inc., priority 2011, dated 2017).

wild-type human cardiac sodium channel, hNav1.5, sequence (Q14524 whole entry): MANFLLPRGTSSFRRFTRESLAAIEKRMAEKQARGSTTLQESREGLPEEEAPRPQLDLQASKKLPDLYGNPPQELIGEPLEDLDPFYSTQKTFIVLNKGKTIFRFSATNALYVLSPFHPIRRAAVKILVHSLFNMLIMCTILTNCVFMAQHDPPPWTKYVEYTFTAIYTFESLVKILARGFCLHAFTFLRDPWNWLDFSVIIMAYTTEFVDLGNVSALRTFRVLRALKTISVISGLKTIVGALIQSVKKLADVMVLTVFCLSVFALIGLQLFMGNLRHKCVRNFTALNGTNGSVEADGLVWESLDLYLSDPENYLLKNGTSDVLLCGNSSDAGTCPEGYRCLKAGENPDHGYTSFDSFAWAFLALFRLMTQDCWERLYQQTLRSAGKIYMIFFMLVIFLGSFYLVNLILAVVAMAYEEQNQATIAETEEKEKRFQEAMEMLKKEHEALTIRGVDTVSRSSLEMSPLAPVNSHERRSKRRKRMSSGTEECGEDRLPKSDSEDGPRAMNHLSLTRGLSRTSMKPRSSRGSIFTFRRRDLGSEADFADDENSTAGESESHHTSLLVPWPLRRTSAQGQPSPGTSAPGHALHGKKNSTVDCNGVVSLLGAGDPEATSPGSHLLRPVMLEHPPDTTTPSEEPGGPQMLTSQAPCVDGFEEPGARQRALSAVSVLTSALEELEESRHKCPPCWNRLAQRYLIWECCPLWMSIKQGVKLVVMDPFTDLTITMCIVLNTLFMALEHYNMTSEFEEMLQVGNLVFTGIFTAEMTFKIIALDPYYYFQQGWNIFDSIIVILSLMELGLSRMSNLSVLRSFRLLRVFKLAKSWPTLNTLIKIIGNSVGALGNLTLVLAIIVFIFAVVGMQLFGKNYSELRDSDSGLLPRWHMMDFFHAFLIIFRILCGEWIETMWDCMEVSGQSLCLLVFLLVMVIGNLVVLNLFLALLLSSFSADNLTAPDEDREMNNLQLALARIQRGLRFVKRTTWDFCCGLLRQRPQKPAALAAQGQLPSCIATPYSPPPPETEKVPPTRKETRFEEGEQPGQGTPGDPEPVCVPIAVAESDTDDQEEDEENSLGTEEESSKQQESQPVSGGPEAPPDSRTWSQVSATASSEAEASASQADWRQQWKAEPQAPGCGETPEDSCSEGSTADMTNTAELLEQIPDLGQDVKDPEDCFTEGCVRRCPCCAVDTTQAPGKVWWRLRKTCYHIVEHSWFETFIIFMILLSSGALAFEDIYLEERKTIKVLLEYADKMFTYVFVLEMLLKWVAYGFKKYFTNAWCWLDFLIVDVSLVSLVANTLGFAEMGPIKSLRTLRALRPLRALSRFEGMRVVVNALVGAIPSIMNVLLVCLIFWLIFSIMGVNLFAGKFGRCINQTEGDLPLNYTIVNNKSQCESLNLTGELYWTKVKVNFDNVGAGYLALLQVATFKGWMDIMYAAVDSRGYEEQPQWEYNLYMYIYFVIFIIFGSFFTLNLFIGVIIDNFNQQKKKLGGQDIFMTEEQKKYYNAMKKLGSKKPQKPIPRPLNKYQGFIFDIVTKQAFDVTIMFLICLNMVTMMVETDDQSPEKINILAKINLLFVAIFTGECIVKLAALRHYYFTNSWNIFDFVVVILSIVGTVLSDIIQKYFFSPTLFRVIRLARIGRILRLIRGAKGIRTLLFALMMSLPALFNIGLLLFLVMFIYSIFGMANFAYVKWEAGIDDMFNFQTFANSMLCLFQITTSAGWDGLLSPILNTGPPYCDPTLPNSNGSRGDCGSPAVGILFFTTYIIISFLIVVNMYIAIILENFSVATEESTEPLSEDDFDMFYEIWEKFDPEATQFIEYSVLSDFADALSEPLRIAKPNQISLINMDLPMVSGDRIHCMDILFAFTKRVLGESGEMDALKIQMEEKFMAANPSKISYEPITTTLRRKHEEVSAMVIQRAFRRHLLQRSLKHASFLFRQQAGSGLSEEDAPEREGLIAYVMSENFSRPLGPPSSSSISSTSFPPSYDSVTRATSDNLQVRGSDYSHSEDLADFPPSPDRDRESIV

The assay concerns the target wild-type human cardiac sodium channel, hNav1.5 (Homo sapiens, UniProt Q14524). As to the kind of experiment: Late INa screening assay (QPatch whole cell patch clamp, HEK293). In kind it is cell-based. The following applies: HEK293, percent block of late INa; compound at 1 μM; 10 μM Tefluthrin; read-out: Late INa 1 μM. The essentials:
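HEK293 stably expressing hNav1.5 without beta subunits, recorded at 23-25° C. Late current was induced by 10 μM tefluthrin. Cells were depolarized from −120 mV to −20 mV for 250 ms at 0.1 Hz. Compounds were tested at 1 μM in extracellular solution, with baseline taken in 0Na-ECF; output is percent block of late INa.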
(In general: The patch-clamp technique gives a direct electrical read-out from membranes.)
For `O=C1c2cc(-c3cccc(Oc4ccccc4)c3)ccc2OCCN1Cc1ncccn1` [II-195, 7-(3-phenoxyphenyl)-4-(pyrimidin-2-ylmethyl)-3,4-dihydrobenzo[f][1,4]oxazepin-5(2H)-one], the inhibition at 1 µM was determined as 66%.
Then `O=C1c2cc(-c3ccc(OC(F)(F)F)cc3)ccc2OCCN1Cc1ncc(Cl)cn1` [II-65, 4-((5-chloropyrimidin-2-yl)methyl)-7-(4-(trifluoromethoxy)phenyl)-3,4-dihydrobenzo[f][1,4]oxazepin-5(2H)-one], with 19%; and `O=C1c2cc(-c3ccc(OC(F)(F)F)cc3)ccc2OCCN1Cc1ccn(C2CCCC2)n1` [II-152, 4-((1-cyclopentyl-1H-pyrazol-3-yl)methyl)-7-(4-(trifluoromethoxy)phenyl)-3,4-dihydrobenzo[f][1,4]oxazepin-5(2H)-one], with 23%; and `O=C1c2cc(-c3ccc(OC(F)(F)F)cc3)ccc2OCCN1CC(F)F` [II-6, 4-(2,2-difluoroethyl)-7-(4-(trifluoromethoxy)phenyl)-3,4-dihydrobenzo[f][1,4]oxazepin-5(2H)-one], with 16%.
Then `O=C1c2cc(-c3ccc(OC(F)(F)F)cc3)ccc2OCCN1Cc1nnc(C2CC2)o1` [II-68, 4-((5-cyclopropyl-1,3,4-oxadiazol-2-yl)methyl)-7-(4-(trifluoromethoxy)phenyl)-3,4-dihydrobenzo[f][1,4]oxazepin-5(2H)-one], with 17%.
As to `CC(C)[C@H]1COc2ccc(-c3ccc(C(F)(F)F)cc3)cc2C(=O)N1` [II-77, (S)-3-isopropyl-7-(4-(trifluoromethyl)phenyl)-3,4-dihydrobenzo[f][1,4]oxazepin-5(2H)-one], the inhibition at 1 µM came to 21%.
As for `O=C1c2cc(-c3cnc(N4CCCCC4)nc3)ccc2OCCN1Cc1ncccn1` [VI-11, 7-(2-(piperidin-1-yl)pyrimidin-5-yl)-4-(pyrimidin-2-ylmethyl)-3,4-dihydrobenzo[f][1,4]oxazepin-5(2H)-one], the inhibition at 1 µM came out at 19%.
On to `Cn1cc(CN2CCOc3ccc(-c4ccc(OC(F)(F)F)cc4)cc3C2=O)cn1` [II-160, 4-((1-methyl-1H-pyrazol-4-yl)methyl)-7-(4-(trifluoromethoxy)phenyl)-3,4-dihydrobenzo[f][1,4]oxazepin-5(2H)-one], for which the inhibition at 1 µM came to 48%.
As for `C[C@@H]1CN(C(=O)c2ncccn2)Cc2cc(-c3ccc(OC(F)(F)F)cc3)ccc2O1` [III-38, (R)-(2-methyl-7-(4-(trifluoromethoxy)phenyl)-2,3-dihydrobenzo[f][1,4]oxazepin-4(5H)-yl)(pyrimidin-2-yl)methanone], the inhibition at 1 µM is 28%.
As for `O=C1c2cc(-c3ccc(C(F)(F)F)cc3)ccc2OC[C@@H]2CN(CC(F)F)CCN12` [II-24, (S)-2-(2,2-difluoroethyl)-8-(4-(trifluoromethyl)phenyl)-3,4,12,12a-tetrahydro-1H-benzo[f]pyrazino[2,1-c][1,4]oxazepin-6(2H)-one], the inhibition at 1 µM amounted to 23%.
`O=C1c2cc(-c3ccc(OS(=O)(=O)C(F)(F)F)cc3)ccc2OCCN1Cc1ncccn1` [II-171, 4-(5-oxo-4-(pyrimidin-2-ylmethyl)-2,3,4,5-tetrahydrobenzo[f][1,4]oxazepin-7-yl)phenyl trifluoromethanesulfonate]: the inhibition at 1 µM was 24%.
In the case of `O=C1c2cc(CCc3ccc(C(F)(F)F)cc3)ccc2OCCN1Cc1ncccn1` [VIII-8, 4-(pyrimidin-2-ylmethyl)-7-(4-(trifluoromethyl)phenethyl)-3,4-dihydrobenzo[f][1,4]oxazepin-5(2H)-one], the inhibition at 1 µM is 47%.
Regarding `Cn1ccnc1C(=O)N1CCOc2ccc(-c3ccc(C(F)(F)F)cc3)cc2C1` [III-37, (1-methyl-1H-imidazol-2-yl)(7-(4-(trifluoromethyl)phenyl)-2,3-dihydrobenzo[f][1,4]oxazepin-4(5H)-yl)methanone], the inhibition at 1 µM came out at 41%.
On to `O=C1c2cc(-c3ccc(OC(F)(F)F)cc3)ccc2OCCN1Cc1cc(-c2ccccn2)on1` [II-41, 4-((5-(pyridin-2-yl)isoxazol-3-yl)methyl)-7-(4-(trifluoromethoxy)phenyl)-3,4-dihydrobenzo[f][1,4]oxazepin-5(2H)-one], for which the inhibition at 1 µM is 17%.
Take `O=C1c2cc(-c3ccc(OC(F)(F)F)cc3)ccc2OCCN1Cc1ccncc1` [II-67, 4-(pyridin-4-ylmethyl)-7-(4-(trifluoromethoxy)phenyl)-3,4-dihydrobenzo[f][1,4]oxazepin-5(2H)-one]: the inhibition at 1 µM was found to be 22%.
`O=C1c2cc(-c3ccc(OC(F)(F)F)cc3)ccc2OCCN1CCO` [II-71, 4-(2-hydroxyethyl)-7-(4-(trifluoromethoxy)phenyl)-3,4-dihydrobenzo[f][1,4]oxazepin-5(2H)-one]: the inhibition at 1 µM is 12%.
Take `O=C1c2cc(-c3ccc(OC(F)(F)F)cc3)ccc2OCCN1Cc1nccc(C(F)(F)F)n1` [II-113, 7-(4-(trifluoromethoxy)phenyl)-4-((4-(trifluoromethyl)pyrimidin-2-yl)methyl)-3,4-dihydrobenzo[f][1,4]oxazepin-5(2H)-one]: the inhibition at 1 µM turned out to be 27%.
To `O=C(c1ncc[nH]1)N1CCOc2ccc(-c3ccc(C(F)(F)F)cc3)cc2C1` [III-33, (1H-imidazol-2-yl)(7-(4-(trifluoromethyl)phenyl)-2,3-dihydrobenzo[f][1,4]oxazepin-4(5H)-yl)methanone] belongs 37%; to `CC(C)(C)OC(=O)N1CCn2cc(C(=O)N3CCOc4ccc(-c5ccc(C(F)(F)F)cc5)cc4C3)nc2C1` [III-40, tert-butyl 2-(7-(4-(trifluoromethyl)phenyl)-2,3,4,5-tetrahydrobenzo[f][1,4]oxazepine-4-carbonyl)-5,6-dihydroimidazo[1,2-a]pyrazine-7(8H)-carboxylate], 22%; to `CC1(C(=O)N2CCOc3ccc(-c4ccc(OC(F)(F)F)cc4)cc3C2)CC1` [III-10, (1-methylcyclopropyl)(7-(4-(trifluoromethoxy)phenyl)-2,3-dihydrobenzo[f][1,4]oxazepin-4(5H)-yl)methanone], 29%.
As to `O=C1c2cc(-c3ccc(OC(F)(F)F)cc3)ccc2OCCN1Cc1nnc(C2CCC2)o1` [II-4, 4-((5-cyclobutyl-1,3,4-oxadiazol-2-yl)methyl)-7-(4-(trifluoromethoxy)phenyl)-3,4-dihydrobenzo[f][1,4]oxazepin-5(2H)-one], the inhibition at 1 µM is 30%.
In the case of `O=C1NCCOc2ccc(-c3ccc(OC(F)(F)F)cc3)cc21` [II-74, 7-(4-(trifluoromethoxy)phenyl)-3,4-dihydrobenzo[f][1,4]oxazepin-5(2H)-one], the inhibition at 1 µM came to 12%.
On to `O=C1c2cc(-c3ccc(OC(F)(F)F)cc3)ccc2OCCN1CCc1ncccn1` [II-44, 4-(2-(pyrimidin-2-yl)ethyl)-7-(4-(trifluoromethoxy)phenyl)-3,4-dihydrobenzo[f][1,4]oxazepin-5(2H)-one], for which the inhibition at 1 µM turned out to be 39%.
On to `O=C1c2cc(-c3ccc(C4CC4)s3)ccc2OCCN1Cc1ncccn1` [VI-36, 7-(5-cyclopropylthiophen-2-yl)-4-(pyrimidin-2-ylmethyl)-3,4-dihydrobenzo[f][1,4]oxazepin-5(2H)-one], for which the inhibition at 1 µM was 47%.
With `O=C(c1cnccn1)N1CCOc2ccc(-c3ccc(OC(F)(F)F)cc3)cc2C1` [III-23, pyrazin-2-yl(7-(4-(trifluoromethoxy)phenyl)-2,3-dihydrobenzo[f][1,4]oxazepin-4(5H)-yl)methanone], the inhibition at 1 µM is 26%.
On to `O=C1c2cc(-c3ccc(OC(F)(F)F)cc3)ncc2OCCN1CC1CC1` [XII-9, 4-(cyclopropylmethyl)-7-(4-(trifluoromethoxy)phenyl)-3,4-dihydropyrido[4,3-f][1,4]oxazepin-5(2H)-one], for which the inhibition at 1 µM was determined as 22%.
To `CC1(C)COC(C)(CCN2CCOc3ccc(-c4ccc(OC(F)(F)F)cc4)cc3C2=O)OC1` [II-35, 7-(4-(trifluoromethoxy)phenyl)-4-(2-(2,5,5-trimethyl-1,3-dioxan-2-yl)ethyl)-3,4-dihydrobenzo[f][1,4]oxazepin-5(2H)-one] belongs 25%; to `CCN1CCN2C(=O)c3cc(-c4ccc(C(F)(F)F)cc4)ccc3OC[C@H]2C1` [II-23, (R)-2-ethyl-8-(4-(trifluoromethyl)phenyl)-3,4,12,12a-tetrahydro-1H-benzo[f]pyrazino[2,1-c][1,4]oxazepin-6(2H)-one], 25%; to `N#CC1(c2ccc(-c3ccc4c(c3)C(=O)N(Cc3ncccn3)CCO4)cc2)CCCC1` [II-122, 1-(4-(5-oxo-4-(pyrimidin-2-ylmethyl)-2,3,4,5-tetrahydrobenzo[f][1,4]oxazepin-7-yl)phenyl)cyclopentanecarbonitrile], 19%.
With `[2H]C1([2H])Oc2ccc(-c3ccc(OC(F)(F)F)cc3)cc2C(=O)N(Cc2ncccn2)C1([2H])[2H]` [II-174, 2,2,3,3-tetradeutero-4-(pyrimidin-2-ylmethyl)-7-(4-(trifluoromethoxy)phenyl)-3,4-dihydrobenzo[f][1,4]oxazepin-5(2H)-one], the inhibition at 1 µM was 48%.
As for `O=C1c2cc(-c3ccc(C(F)(F)F)c(F)c3)ccc2OCCN1Cc1ncccn1` [II-136, 7-(3-fluoro-4-(trifluoromethyl)phenyl)-4-(pyrimidin-2-ylmethyl)-3,4-dihydrobenzo[f][1,4]oxazepin-5(2H)-one], the inhibition at 1 µM turned out to be 30%.
With `O=C1c2cc(CCc3ccc(C(F)(F)F)cc3)ccc2OCCN1Cc1ccccn1` [VIII-7, 4-(pyridin-2-ylmethyl)-7-(4-(trifluoromethyl)phenethyl)-3,4-dihydrobenzo[f][1,4]oxazepin-5(2H)-one], the inhibition at 1 µM turned out to be 59%.
On to `Cc1cc(OC(F)(F)F)ccc1-c1ccc2c(c1)C(=O)N(Cc1ncccn1)CCO2` [II-146, 7-(2-methyl-4-(trifluoromethoxy)phenyl)-4-(pyrimidin-2-ylmethyl)-3,4-dihydrobenzo[f][1,4]oxazepin-5(2H)-one], for which the inhibition at 1 µM came out at 36%.
